Test results: patent publication US6143492A, “Optical molecular sensors for cytochrome P450 activity” (Aurora Biosciences Corporation, priority 1999, dated 2000)
Blank lines part the entries; values can stand above or below the molecule they belong to.

Assays:
[1] = molecular target: CYP 2D6 (Homo sapiens, UniProt P10635); assay: in vitro
Description: CYP 2D6 was incubated with 10 μM concentrations of various known inhibitors and drug substrates and residual CYP 2D6 activity assayed with the fluorogenic substrate MOBFC. The assay was performed in a 96-well plate at room temp and at a volume of 100 μl/well. 4×enzyme buffer was prepared and 25 μl was added to each well on the plate, for final assay concentrations of 3.3 mM glucose-6-phosphate, 0.4 units/ml glucose-6-phosphate dehydrogenase and 10 mM MgCl2 in 100 mM K+ phosphate, pH 8.0. […] Six consecutive 1:3 dilutions were made and 50 μl of each was added to appropriate wells on the assay plate. The CYP2D6 was diluted to a solution of 2 pmol/10 μl in 100 mM K+ phosphate and 10 μl was added to each well. 20 μl of buffer was added to each well containing standard. The drug inhibitors were allowed to pre-incubated with the CYP 2D6 enzyme for 1 hr prior to the addition of the MOBFC substrate. […] Hydroxy-trifluoro-methylcoumarin was diluted to 100 μM in K+ phosphate buffer, and seven consecutive 1:2 dilutions were made. 10 μl of each dilution was added to the appropriate wells on the plate containing 90 μl of 100 mM K+ phosphate, pH 8.0.

[2] = substrate: COc1ccc2c(C(F)(F)F)cc(=O)oc2c1; assay: Kinetics of fluorogenic substrates with CYP 2D6; assay type: biochemical, human; settings: other: CYP 2D6

Molecule: CC(C)NC[C@H](O)COc1cccc2ccccc12 (racemic) [Propanolol]
Ki ([1]; human, cyp 2d6, pH 8): > 30 µM

Ki [1]: > 30 µM
Molecule: CCC1C2CC3C4N(C)c5ccccc5C45CC(C2C5O)N3C1O (stereo not shown) [Amjaline]

B1: CYP 2D6 (Homo sapiens) (protein)
chain: MGLEALVPLAVIVAIFLLLVDLMHRRQRWAARYPPGPLPLPGLGNLLHVDFQNTPYCFDQLRRRFGDVFSLQLAWTPVVVLNGLAAVREALVTHGEDTADRPPVPITQILGFGPRSQGVFLARYGPAWREQRRFSVSTLRNLGLGKKSLEQWVTEEAACLCAAFANHSGRPFRPNGLLDKAVSNVIASLTCGRRFEYDDPRFLRLLDLAQEGLKEESGFLREVLNAVPVLLHIPALAGKVLRFQKAFLTQLDELLTEHRMTWDPAQPPRDLTEAFLAEMEKAKGNPESSFNDENLRIVVADLFSAGMVTTSTTLAWGLLLMILHPDVQRRVQQEIDDVIGQVRRPEMGDQAHMPYTTAVIHEVQRFGDIVPLGVTHMTSRDIEVQGFRIPKGTTLITNLSSVLKDEAVWEKPFRFHPEHFLDAQGHFVKPEAFLPFSAGRRACLGEPLARMELFLFFTSLLQHFSFSVPTGQPRPSHHGVFAFLVSPSPYELCAVPR
Km [2]: 10.0 µM
kcat/Km [2]: 417 M⁻¹ s⁻¹
